# Results published in US20240376098A1, “METHODS OF TREATMENT USING BCN057, BCN077 AND ANALOGS” (BCN Biosciences L.L.C., priority 2021, published 2024).
# What was measured:
# Lgr5+ ISCs = assay: Lgr5+ intestinal stem cells in 5FU treated Lgr5-Cre-ERT-GFP mice; type: in vivo; settings: 5FU treated mice, confocal microscopic imaging
# Procedure: 5FU is a component of FOLFIRINOX and the active agent metabolized from Capecitabine (Xeloda®). To, examine the effect of BCN057 against chemo induced toxicity in Lgr5+ ISCs, Lgr5-Cre-ERT-GFP mice were pre-treated with 5FU as reported and then subjected to BCN057 treatment.
# Stains of GI crypts with green=LGR5+ stem cells. Mice were treated with 5FU and 5FU+BCN057 for 5 days. BCN057 was administered for two extra days after 5FU treatment. Small intestine samples were harvested and stained for LGR5 at 3 days after the last 5FU injection. FIG. 5D is a histogram of the quantitation by % of LGR5+ cells remaining in […] sections at the crypt base showing prevention of 5-FU induced apoptosis in LGR5+ stem cells in GI.
# [1] = system: KRAS mutant G12D invasive pancreatic cancer cell lines; assay: Proliferation of pancreatic cancer cell lines with analogues of BCN057; type: cell-based
# [2] = system: PD-1 expression on human T-lymphocytes; assay: Western blot of PD-1 on T-lymphocytes co-cultured with Panc-1 cells; type: cell-based; settings: 15 minutes to 24 hours
# Procedure: Cell lines and cell culture: Panc-1 cells were cultured in DMEM medium supplemented with 10% Fetal Bovine Serum and maintained at 37° C.5% CO2. Human Peripheral Blood Pan-T Cells were cultured in serum free T cells expansion media with 10 ng/ml of rhIL-2, T-cell activator and expanded as per the manufacturer instructions. Panc-1 cells and T-Cells were grown and expanded separately in T75 flasks. For co-culture experiments with Panc-1 cell, 2.5 million T-cells per well were plated in the well using a 6 well plate. 2.5 million Panc-1 Cells were plated in the thinsert which was placed into the well of the 6 well plate in order to have the cells physically separated but share media. The cells were incubated for 24 hours at 37° C., 5% CO2. At 24 hours the media was replaced with media containing vehicle, or 10 uM BCN057 and were incubated for the following timepoints: 1 hr, 6 hr, 12 hr, 24 hrs. The Panc-1 cells were removed by gently scraping the cells from the thinsert.
# Western Blot: Cells were harvested and lysed in cell lysis buffer on ice for 15 minutes and the lysate was centrifuged at 13,000 rpm at 4° C. for 10 minutes. The supernatant was transferred into a new tube for BCA protein quantification assay (Thermo Fisher Scientific) and the samples were normalized. 3× loading buffer (Cell Signaling) was added the protein sample and boiled for 5 minutes. The samples were used for SDS-PAGE analysis and transferred to nitrocellulose membrane. The membrane was blocked with 5% BSA at room temperature for 1 hour and incubated with primary antibody at 4° C. overnight. The membrane was washed with 1×TBST 5 minutes for 3 times and incubated with horseradish peroxidase-conjugated secondary antibody for 1 hour at room temperature. The protein was visualized by SuperSignal West Pico Stable Peroxide Solution (Thermo Fisher Scientific). The blot was visualized by chemiluminescence using a BioRad Versadoc Imaging System.
# BCN057 and Immune Checkpoint blockade: An emerging method of treatment for many forms of cancer, including PDAC, is immune checkpoint inhibitors. […]
# [3] = system: human KRAS G12D mutant colorectal cancer cell line LS174T; assay: Viability of LS174T colorectal cancer cells; type: cell-based; settings: viability versus concentration
# Description: FIG. 9 is a graph of viability versus concentration of BCN077.
# [4] = system: pancreatic ductal adenocarcinoma cells (AsPC-1, BxPC-3, MIA PaCa-2 and Panc-1); settings: range over AsPC-1, BxPC-3, MIA PaCa-2 and Panc-1; limits printed in nM and μM; cited from earlier work
Compound,Proliferation of KRAS mutant G12D invasive pancreatic cancer cell lines [1],PD1 expression in co-culture of T-cells and Panc1 cells [2],also measured
"O=c1[nH]cc(F)c(=O)[nH]1 [5FU, 5-Fluorouracil, reference compound]",–,–,Lgr5+ ISCs in jejunal section (Lgr5+ ISCs): significant loss of Lgr5+ ISCs
CONCCC(=O)Nc1c(-c2cc3ccc(OC)cc3[nH]c2=O)nc2c(C)cccn12 [BCN036],inhibition of proliferation,inhibit PD1 expression over time,–
CNCCC(=O)Nc1c(-c2cc3ccc(OC)cc3[nH]c2=O)nc2c(C)cccn12.Cl [BCN076],inhibition of proliferation,inhibit PD1 expression over time,–
COc1ccc2cc(-c3nc4c(C)cccn4c3NC(=O)c3cccc(F)c3)c(=O)[nH]c2c1 [BCN077],inhibition of proliferation,–,Activity on viability of LS174T [3]: potent activity
Nc1ccn([C@@H]2O[C@H](CO)[C@@H](O)C2(F)F)c(=O)n1 [gemcitabine],–,–,IC50 [4]: 494 to 23900 nM
